In patent publication EP0071535B1, “(4-(2 and/or 3-Thienylacetamido)-phenoxy)-hydroxyaminopropanes, their preparation, their therapeutic use and intermediates” (CARPIBEM (CENTRE D'ACTIVITE ET DE RECHERCHE PHARMACEUTIQUE …, priority 1981, dated 1983):

Experiments:
[1] = system: effets β2 (diminution de la pression artérielle diastolique) de l'isoprénaline; assay: β-blocking activity: inhibition of the β2 effects of intravenous isoprenaline in anaesthetised dogs; format: in vivo, chiens; conditions: Canis lupus familiaris, iv, dog, inhibition given with negative sign, read-out: % d'inhibition des effets β2^⊕ de l'Isoprénaline; for inhibition at 0.001 mg/kg: 0,001 mg/kg I.V.; for inhibition at 0.003 mg/kg: 0,003 mg/kg I.V.; for inhibition at 0.01 mg/kg: 0,010 mg/kg I.V.; for inhibition at 0.1 mg/kg: 0,100 mg/kg I.V.
Protocol: (§1) Des chiens tout-venants mâles ou femelles sont anesthésiés au mébubarbital sodique (30 mg/kg I.V.) et ventilés artificiellement par une pompe Pesty RPP. Ils sont supplémentés en oxygène.
(§2) On mesure: • - la pression carotidienne systolique et diastolique • - la force contractile du myocarde.
(§3) Les signaux sont amplifiés et enregistrés sur Dynograph Beckman.
(§4) L'activité β bloquante adrénergique a été étudiée vis-à-vis des effets β1 (augmentation de la force contractile du myocarde) et des effets P2 (diminution de la pression artérielle disstolique) de l'isoprénaline administrée par voie intraveineuse.
(§5) On calcule le pourcentsge d'inhibition des effets β1 et des effets β2 de l'isoprénaline en fonction des doses (mg.kg I.V.) des différents exemples.
(§6) Les exemples sont injectés dans le veine saphène aux doses (exprimées en base) de: 0,0003 0,001 0,003 0,01 0,1 1,0 et 4,0 ou 8,0 mg.kg-1.

[2] = system: effets β1 (augmentation de la force contractile du myocarde) de l'isoprénaline; assay: β-blocking activity: inhibition of the β1 effects of intravenous isoprenaline in anaesthetised dogs; format: in vivo, chiens; conditions: Canis lupus familiaris, iv, dog, inhibition given with negative sign, read-out: % d'inhibition des effets β1^(+) de l'Isoprénaline; for inhibition at 0.001 mg/kg: 0,001 mg/kg I.V.; for inhibition at 0.003 mg/kg: 0,003 mg/kg I.V.; for inhibition at 0.01 mg/kg: 0,010 mg/kg I.V.; for inhibition at 0.1 mg/kg: 0,100 mg/kg I.V.
Protocol: as §1, §2, §3, §4, §5, §6

[3] = system: rat génétiquement hypertendu: Rat OKAMOTO; assay: Antihypertensive activity in spontaneously hypertensive rats (tail-cuff systolic pressure and heart rate after oral dosing); format: in vivo; conditions: 64 mg.kg^-1 V.O
Protocol: Des rats mâles âgés de 13 à 21 semaines présentant une hypertension spontanée génétiquement transmissible (souche OKAMOTO provenance IFFA CREDO) sont placés dans une enceinte thermostatée à 38°C. Les rats sont laissés en situation libre. La pression artérielle est mesurée par un sphygmomanomètre Narco Biosystem. Un manchon est placé à la base de la queue et un détecteur enregistre le pouls en aval du manchon. Celui-ci est gonflé jusqu'à suppression du pouls il est ensuite progressivement dégonflé. La pression mesurée à la reprise des battements cardiaques est la pression artérielle systolique. On calcule la fréquence cardiaque à partir de l'enregistrement du pouls artériel. Les produits à étudiar sont mis en suspension el administrés par voie orale sous un volume de 1 ml pour 100 g de poids corporel. Les mesures sont répétées à intervalles réguliers.
Les valeurs moyennes avant traitement pour les différents lots de rats sont pour la pression artérielle systolique de 190 à 200 mmHg et pour la fréquence cardiaque de 305 à 350 battements par minute.
Le tableau III ci-après donne la moyenne des variations de la pression systolique (mmHg) de la fréquence cardisque (battements/minute) et les écarts type à la moyenne obtenus 1 heure 3 heures et 5 heures après administration orale.

SMILES	inhibition at 0.001 mg/kg [1] [%]	inhibition at 0.003 mg/kg [1] [%]	inhibition at 0.01 mg/kg [1] [%]	inhibition at 0.1 mg/kg [1] [%]	inhibition at 0.001 mg/kg [2] [%]	inhibition at 0.003 mg/kg [2] [%]	inhibition at 0.01 mg/kg [2] [%]	inhibition at 0.1 mg/kg [2] [%]	Fréquence cardiaque Δ (battements/min) T+1 heure m (sm) [3]	Pression systolique Δ (mmHg) T+1 heure m (sm) [3]	Pression systolique Δ (mmHg) T+3 heures m (sm) ([3]; T+3 heures)	Fréquence cardiaque Δ (battements/min) T+5 heures m (sm) [3]	Pression systolique Δ (mmHg) T+5 heures m (sm) [3]	Fréquence cardiaque Δ (battements/min) T+3 heures m (sm) ([3]; T+3 heures)
CC(C)(C)NCC(O)COc1ccc(NC(=O)Cc2ccsc2)cc1Cl (stereo not drawn) [exemple 45, 1-[2-chloro 4-(3-thiénylacétamido)phénoxy] 3-terbutylamino 2-propanol]	-12	-5	-23	-33	-30	-60	-86	-100	+45 (6) battements/min	-32 (5) mmHg	-14 (9) mmHg	+30 (10) battements/min	-28 (5) mmHg	–
CC(C)NCC(O)COc1ccc(NC(=O)Cc2cccs2)cc1F (stereo not drawn) [exemple 48, 1-[2-fluoro 4-(2-thiénylacétamido)phénoxy] 3-isopropylamino 2-propanol]	-27	-31	-46	-52	-11	-23	-41	-83	+38 (10) battements/min	-51 (6) mmHg	-50 (6) mmHg	+27 (10) battements/min	-45 (6) mmHg	+41 (8) battements/min
